Counter-ions that a name gives are not always drawn. Some results are limits rather than exact numbers.

In general, melting point refers to the temperature of the solid-liquid transition. `COc1cc(OC)c(-c2cccnc2)cc1/C=C/C(=O)c1ccc(S(N)(=O)=O)cc1` [Example 104, 4-[3E-(2,4-Dimethoxy-5-pyridin-3-yl-phenyl)-acryloyl]-benzenesulfonamide]: the melting point lay within 253 to 255 °C.
With `COc1cc(OC)c(-c2nc3cccnc3[nH]2)cc1/C=C/C(=O)c1ccc(S(N)(=O)=O)cc1` [Example 112, 4-{3E-[5-(3H-Imidazo[4,5-b]pyridin-2-yl)-2,4-dimethoxy-phenyl]-acryloyl}-benzenesulfonamide] the figure was > 260 °C.
With `COc1cc(OC)c(-c2c[nH]c(C3CC3)n2)cc1/C=C/C(=O)c1ccc(C(=O)O)cc1.Cl` [Example 105, 4-{3E-[5-(2-Cyclopropyl-1H-imidazol-4-yl)-2,4-dimethoxy-phenyl]-acryloyl}-benzoic acid, hydrochloride] the figure was > 240 °C.
Under `COc1cc(OCC(=O)N2CCOCC2)c(/C=C/C(=O)c2ccc(C(=O)O)cc2)cc1-c1cccs1` [Example 72, 4-{3E-[4-Methoxy-2-(2-morpholin-4-yl-2-oxo-ethoxy)-5-thiophen-2-yl-phenyl]-acryloyl}-benzoic acid] stands 231 to 233 °C; under `COc1cc(OC(C)(C)C(=O)O)c(/C=C/C(=O)c2ccc(S(N)(=O)=O)cc2)cc1-c1cccs1` [Example 82, 2-{5-Methoxy-2-[3-oxo-3-(4-aminosulfonyl-phenyl)-E-propenyl]-4-thiophen-2-yl-phenoxy}-2-methyl-propionic acid], 164 to 165 °C; under `COc1cc(OCCN2CCOCC2)c(/C=C/C(=O)c2ccc(S(N)(=O)=O)cc2)cc1-c1cccs1.Cl`, 235 °C (dec.).
`O=C([O-])c1ccc(/C=C/C(=O)c2ccc(-c3cccs3)cc2)cc1.[Na+]` [Example 17, 4-[3-{4-(thien-2-yl)-phenyl}-3-oxo-E-propenyl]-benzoic acid, sodium salt]: the melting point was > 260 °C.
The compound `COc1cc(OC(C)(C)C(=O)O)c(/C=C/C(=O)c2ccc(C(=O)O)cc2)cc1-c1cccs1` [Example 59, 4-{3E-[2-(1-Carboxy-1-methyl-ethoxy)-4-methoxy-5-thiophen-2-yl-phenyl]-acryloyl}-benzoic acid] yielded a melting point of 223 to 225 °C.
With `COc1cc(OC)c(-c2cc3ccccc3s2)cc1/C=C/C(=O)c1ccc(C(=O)[O-])cc1.[Na+]` [Example 56, 4-[3E-(5-Benzo[b]thiophen-2-yl-2,4-dimethoxy-phenyl)-acryloyl]-benzoic acid, sodium salt] the figure was > 235 °C; with `COc1cc(OCCC2CCCN2C)c(/C=C/C(=O)c2ccc(C(=O)O)cc2)cc1-c1cccs1.Cl` (centres unmarked) [Example 73, 4-(3E-{4-Methoxy-2-[2-(1-methyl-pyrrolidin-2-yl)-ethoxy]-5-thiophen-2-yl-phenyl}-acryloyl)-benzoic acid, hydrochloride], 206 to 208 °C.
As for `COc1cc(OC)c(-c2nncn2CC(C)C)cc1/C=C/C(=O)c1ccc(S(N)(=O)=O)cc1` [Example 109, 4-{3E-[5-(4-Isobutyl-4H-[1,2,4]triazol-3-yl)-2,4-dimethoxy-phenyl]-acryloyl}-benzenesulfonamide], the melting point is > 240 °C.
Under `COc1cc(OC)c(-c2cc3ccccc3n2C)cc1/C=C/C(=O)c1ccc(C(=O)O)cc1` [Example 116, 4-{3E-[2,4-Dimethoxy-5-(1-methyl-1H-indol-2-yl)-phenyl]-acryloyl}-benzoic acid] stands 157 to 160 °C.
With `COc1cc(OCC(N)=O)c(/C=C/C(=O)c2ccc(C(=O)O)cc2)cc1-c1cccs1` [Example 71, 4-[3E-(2-Carbamoylmethoxy-4-methoxy-5-thiophen-2-yl-phenyl)-acryloyl]-benzoic acid], the melting point was 235 °C (dec.).
As for `COc1cc(OC)c(-c2cc3ccccc3s2)cc1/C=C/C(=O)c1ccc(C(=O)O)cc1` (as salt: salt) [Example 120, 4-[3E-(5-Benzo[b]thien-2-yl-2,4-dimethoxyphenyl)-acryloyl]-benzoic acid, N-methyl-D-glucamine salt], the melting point lay in the range of 75 to 80 °C.

The values above are taken from US7094801B2, “Chalcone derivatives and their use to treat diseases” (Atherogenics, Inc., priority 2001, dated 2006).
